Data taken from PubChem BioAssay (NCI).
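Step 1: Grow cells in 96-well plates. Step 2: Expose to compound for 48 hours at 5 concentrations. Step 3: Interpolate endpoints linearly; if unreached, use highest concentration. TGI: total growth inhibition.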

Experiments:
Assay in all cases: NCI tumour cell line growth inhibition, 48 h
786-0 renal = tested on: 786-0 renal
A498 renal = tested on: A498 renal
A549 NSCLC = tested on: A549 NSCLC
ACHN renal = tested on: ACHN renal
BT-549 breast = tested on: BT-549 breast
CAKI-1 renal = tested on: CAKI-1 renal
CCRF-CEM leukemia = tested on: CCRF-CEM leukemia
COLO 205 colon = tested on: COLO 205 colon
DU-145 prostate = tested on: DU-145 prostate
EKVX NSCLC = tested on: EKVX NSCLC
HCC-2998 colon = tested on: HCC-2998 colon
HCT-116 colon = tested on: HCT-116 colon
HCT-15 colon = tested on: HCT-15 colon
HL-60(TB) leukemia = tested on: HL-60(TB) leukemia
HOP-62 NSCLC = tested on: HOP-62 NSCLC
HOP-92 NSCLC = tested on: HOP-92 NSCLC
HS 578T breast = tested on: HS 578T breast
HT29 colon = tested on: HT29 colon
K-562 leukemia = tested on: K-562 leukemia
KM12 colon = tested on: KM12 colon
LOX IMVI melanoma = tested on: LOX IMVI melanoma
M14 melanoma = tested on: M14 melanoma
MALME-3M melanoma = tested on: MALME-3M melanoma
MCF7 breast = tested on: MCF7 breast
MDA-MB-231 breast = tested on: MDA-MB-231 breast
MDA-MB-435 = tested on: MDA-MB-435
MDA-N = tested on: MDA-N
MOLT-4 leukemia = tested on: MOLT-4 leukemia
NCI-H226 lung = tested on: NCI-H226 lung
NCI-H23 lung = tested on: NCI-H23 lung
NCI-H460 lung = tested on: NCI-H460 lung
NCI/ADR-RES ovarian = tested on: NCI/ADR-RES ovarian
OVCAR-3 ovarian = tested on: OVCAR-3 ovarian
OVCAR-4 ovarian = tested on: OVCAR-4 ovarian
OVCAR-5 ovarian = tested on: OVCAR-5 ovarian
OVCAR-8 ovarian = tested on: OVCAR-8 ovarian
PC-3 prostate = tested on: PC-3 prostate
RPMI-8226 leukemia = tested on: RPMI-8226 leukemia
SF-295 CNS = tested on: SF-295 CNS
SF-539 CNS = tested on: SF-539 CNS
SK-MEL-28 melanoma = tested on: SK-MEL-28 melanoma
SK-MEL-5 melanoma = tested on: SK-MEL-5 melanoma
SK-OV-3 ovarian = tested on: SK-OV-3 ovarian
SN12C renal = tested on: SN12C renal
SNB-19 CNS = tested on: SNB-19 CNS
SR leukemia = tested on: SR leukemia
SW-620 colon = tested on: SW-620 colon
T-47D breast = tested on: T-47D breast
TK-10 renal = tested on: TK-10 renal
U251 CNS = tested on: U251 CNS
UACC-257 melanoma = tested on: UACC-257 melanoma
UACC-62 melanoma = tested on: UACC-62 melanoma
UO-31 renal = tested on: UO-31 renal

SMILES: COC(=O)C#Cc1cccc(OC)c1OC
- TGI (786-0 renal): > 100 µM
- TGI (A498 renal): > 100 µM
- TGI (A549 NSCLC): > 100 µM
- TGI (ACHN renal): > 100 µM
- TGI (BT-549 breast): > 100 µM
- TGI (CAKI-1 renal): 68.3 µM
- TGI (CCRF-CEM leukemia): 67.9 µM
- TGI (COLO 205 colon): 65.7 µM
- TGI (DU-145 prostate): > 100 µM
- TGI (EKVX NSCLC): 54.4 µM
- TGI (HCC-2998 colon): 48.2 µM
- TGI (HCT-116 colon): > 100 µM
- TGI (HCT-15 colon): > 100 µM
- TGI (HL-60(TB) leukemia): > 100 µM
- TGI (HOP-62 NSCLC): > 100 µM
- TGI (HOP-92 NSCLC): 66.1 µM
- TGI (HS 578T breast): > 100 µM
- TGI (HT29 colon): 79.2 µM
- TGI (K-562 leukemia): 55.1 µM
- TGI (KM12 colon): > 100 µM
- TGI (LOX IMVI melanoma): > 100 µM
- TGI (M14 melanoma): > 100 µM
- TGI (MALME-3M melanoma): > 100 µM
- TGI (MCF7 breast): 55.6 µM
- TGI (MDA-MB-231 breast): > 100 µM
- TGI (MDA-MB-435): > 100 µM
- TGI (MDA-N): > 100 µM
- TGI (MOLT-4 leukemia): 35.4 µM
- TGI (NCI-H226 lung): > 100 µM
- TGI (NCI-H23 lung): > 100 µM
- TGI (NCI-H460 lung): > 100 µM
- TGI (NCI/ADR-RES ovarian): 99 µM
- TGI (OVCAR-3 ovarian): > 100 µM
- TGI (OVCAR-4 ovarian): 36.2 µM
- TGI (OVCAR-5 ovarian): 51.3 µM
- TGI (OVCAR-8 ovarian): > 100 µM
- TGI (PC-3 prostate): > 100 µM
- TGI (RPMI-8226 leukemia): > 100 µM
- TGI (SF-295 CNS): > 100 µM
- TGI (SF-539 CNS): 46.4 µM
- TGI (SK-MEL-28 melanoma): > 100 µM
- TGI (SK-MEL-5 melanoma): > 100 µM
- TGI (SK-OV-3 ovarian): > 100 µM
- TGI (SN12C renal): > 100 µM
- TGI (SNB-19 CNS): > 100 µM
- TGI (SR leukemia): 44.8 µM
- TGI (SW-620 colon): > 100 µM
- TGI (T-47D breast): > 100 µM
- TGI (TK-10 renal): > 100 µM
- TGI (U251 CNS): > 100 µM
- TGI (UACC-257 melanoma): > 100 µM
- TGI (UACC-62 melanoma): > 100 µM
- TGI (UO-31 renal): 37.9 µM
